≈ marks a conversion by molar mass, not a printed value. Entries after “also recorded” stand apart in the source; their conditions may differ. Where two headings read alike, the source gives them in different places.
Columns and labels:
[1] = test system: human lung adenocarcinoma epithelial cell line A549; details: previous studies; cited from earlier work
BVDV = test: microbe, parasite or virus in culture; assay type: cell-based, bovine viral diarrhoea virus; details: read-out: EC50 BVDV
HSV-1 = test: microbe, parasite or virus in culture; assay type: cell-based, human herpes 1
HIV-1 IIIB = test: microbe, parasite or virus in culture; assay type: cell-based, Human Immunodeficiency Virus type-1
M. tuberculosis = details: against M. tuberculosis; cited from earlier work
Reo-1 = test: microbe, parasite or virus in culture; assay type: cell-based, reovirus type-1
YFV = test: microbe, parasite or virus in culture; assay type: cell-based, yellow fever virus
WNV [2] = test: microbe, parasite or virus in culture; assay type: cell-based, west nile virus
WNV [3] = test: microbe, parasite or virus in culture; assay type: cell-based, west nile virus; remark: listed apart in the source
DENV-2 = test: microbe, parasite or virus in culture; assay type: cell-based, dengue virus
in vitro [4] = details: cattle (Bos taurus)
WNV [5] = assay type: cell-based, west nile virus; details: for Cell viability, addition at 1, 2, 4 or 8 hours post-infection: 15 μM for 4, 20 μM for 5
in vitro [6] = details: hamster (Mesocricetus auratus)
in vitro [7] = details: African green monkey (Cercopithecus aethiops)
in vitro [8] = details: human
[9] = test system: M. tuberculosis H37Ra ATCC 25177; test: microbe, parasite or virus in culture; assay type: cell-based, Mycobacterium tuberculosis
[10] = test system: West Nile virus, Dengue virus and Yellow Fever virus; assay type: cell-based, Flaviviridae; details: read-out: EC50 range against West Nile virus, Dengue virus and Yellow Fever virus
WNV [11] = test: Adsorption assay; assay type: cell-based, west nile virus; details: BHK cells, m.o.i. 1, 0-60 min at 4°C; 15μM for 4, 20μM for 5
WNV [12] = test: Yield reduction assay; assay type: cell-based, west nile virus; details: BHK-21, m.o.i. 0.1, 72 hrs, 15μM for 4, 20 μM for 5
WNV [13] = test: Virucidal activity assay; assay type: cell-based, west nile virus; details: 45 min at 37°C, 6 and 20μM for 4, 20 and 50μM for 5
[14] = Bovine viral diarrhea virus isolates and strains, MDBK, in Bos taurus
[15] = Reovirus sp., BHK-21, read-out: EC50 Reo-1
[16] = Yellow fever virus, BHK-21, read-out: EC50 YFV
[17] = Human alphaherpesvirus 1, Vero 76, read-out: EC50 HSV-1
[18] = Mycobacterium tuberculosis, 672 h
[19] = Human immunodeficiency virus 1, IIIB, MT4, read-out: EC50 HIV-1IIIB

Q: Which results are given for 21-β-acetoxy-melianone [Compound 3]?
A: Cytotoxicity towards A549 [1]: exhibit cytotoxicity; CC50 (BHK-21 cells): 10 µM; EC50 (BVDV): > 22 µM; EC50 (HSV-1; read-out: EC50 HSV-1): > 36 µM; CC50 (MT-4 cells): 23 µM; EC50 (HIV-1 IIIB; read-out: EC50 HIV-1IIIB): > 23 µM; MIC (M. tuberculosis): 16 µg/mL; EC50 (Reo-1; read-out: EC50 Reo-1): > 10 µM; EC50 (YFV; read-out: EC50 YFV): > 10 µM; CC50 (Vero-76 cells): 36 µM; CC50 (MDBK cells): 22 µM

Q: Which results are given for `C[C@@]1(O)[C@H](O)[C@@H](CO)O[C@H]1n1cnc2c(=O)[nH]c(N)nc21` [2’-C-methyl-guanosine, reference compound]?
A: Cytopathic effects on BHK-21 monolayers (BHK-21 cells): did not show significant cytopathic effects; EC50 (WNV [2]; West Nile virus, BHK-21, read-out: EC50 WNV): 1 µM; EC50 (BVDV; [14]): 2 µM; EC50 (WNV [3]; West Nile virus, BHK-21, 2 h, read-out: EC50 WNV 2hrs p.i.): 1 µM; EC50 (WNV [3]; West Nile virus, BHK-21, read-out: EC50 WNV d. i.): 1 µM; EC50 (DENV-2; Dengue virus, DENV2, BHK-21, read-out: EC50 DENV-2): 1.4 µM; CC50 (in vitro [4]): > 100 µM; Cell viability, addition during the infection (WNV [5]): increases the cell viability; EC50 (Reo-1; [15]): 1 µM; EC50 (YFV; [16]): 1.4 µM; CC50 (in vitro [6]): 80 µM

Q: For `Nc1nc2c(ncn2COCCO)c(=O)[nH]1` [Acycloguanosine, reference compound], which EC50 (HSV-1; [17]) is on record?
A: The EC50 was 3 µM.

Q: And the CC50 (in vitro [7])?
A: The CC50 was greater than 100 µM.

Q: Which results are given for `COC(=O)[C@H](CCC=C(C)C)[C@@H]1[C@@H](O)C[C@]2(C)C3=CC[C@H]4C(C)(C)C(=O)CC[C@]4(C)[C@H]3CC[C@@]12C` [Compound 2, methyl kulonate]?
A: Cytotoxicity towards A549 [1]: exhibit cytotoxicity; EC50 (BVDV; [14]): > 85 µM; CC50 (in vitro [8]): 35 µM; EC50 (HSV-1; [17]): > 100 µM; CC50 (in vitro [7]): 100 µM; MIC [9, 18]: 70 µM (≈ 33.9 µg/mL); CC50 (in vitro [4]): 85 µM; EC50 (HIV-1 IIIB; [19]): > 35 µM; EC50 (Reo-1; [15]): > 100 µM; EC50 (YFV; [16]): > 100 µM; CC50 (in vitro [6]): > 100 µM

Q: Which “Cytotoxicity against Vero cells” value (Vero cells) does the source give for `C/C=C(\C)C(=O)O[C@@H]1CC[C@]2(C)[C@H]3CC[C@@]4(C)[C@@H]([C@@H]5C[C@H]([C@@H]6OC6(C)C)O[C@H]5O)CC[C@]4(C)C3=CC[C@H]2C1(C)C` [Compound 4, 3-α-tigloyl-melianol] here?
A: Its value is greater than 500 µM.

Q: What about the “Cytotoxicity towards A549” value [1] of the same molecule?
A: The value was “exhibit cytotoxicity”.

Q: What about the CC50 (BHK-21 cells) of the same molecule?
A: Its CC50 is 20 µM.

Q: What about the “Cytopathic effects on BHK-21 monolayers” value (BHK-21 cells) of the same molecule?
A: Its value is “did not show significant cytopathic effects”.

Q: What about the EC50 (WNV [2]; read-out: EC50 WNV) of the same molecule?
A: The EC50 was 3 µM.

Q: And the EC50 [10]?
A: The EC50 was 3 to 11 µM.

Q: And the EC50 (BVDV)?
A: Its EC50 is greater than 37 µM.

Q: And the “WNV adsorption (virus titre)” value (WNV [11])?
A: The value was “doesn’t reduce the virus titre”.

Q: And the EC50 (HSV-1; read-out: EC50 HSV-1)?
A: The EC50 was greater than 100 µM.

Q: What about the EC50 (WNV [3]; read-out: EC50 WNV 2hrs p.i.) of the same molecule?
A: Its EC50 is greater than 20 µM.

Q: What about the EC50 (WNV [3]; read-out: EC50 WNV d. i.) of the same molecule?
A: Its EC50 is 3.5 µM.

Q: What about the EC50 (DENV-2; read-out: EC50 DENV-2) of the same molecule?
A: The EC50 was 3 µM.

Q: What about the MIC [9] of the same molecule?
A: Its MIC is 29 µM (≈ 16.1 µg/mL).

Q: And the CC50 (MT-4 cells)?
A: The CC50 was 27 µM.

Q: And the “Cell viability, addition during the infection” value (WNV [5])?
A: The value was “increases the cell viability”.

Q: What about the “Cell viability, pretreatment” value (WNV [5]) of the same molecule?
A: The value was “does not increase the cells viability”.

Q: What about the “Cell viability, addition at 1, 2, 4 or 8 hours post-infection” value (WNV [5]) of the same molecule?
A: Its value is “not more able to protect BHK-21 cells; also recorded: not more able to significantly increase the cell viability”.

Q: And the EC50 (HIV-1 IIIB; read-out: EC50 HIV-1IIIB)?
A: The EC50 was greater than 27 µM.

Q: And the “Reduction of WNV titre (yield reduction)” value (WNV [12])?
A: Its value is “a reduction of virus titre was observed”.

Q: What about the EC50 (Reo-1; read-out: EC50 Reo-1) of the same molecule?
A: Its EC50 is greater than 20 µM.

Q: What about the “Virucidal activity (WNV infectivity)” value (WNV [13]) of the same molecule?
A: Its value is “failed to affect the WNV infectivity”.

Q: What about the “Virucidal activity (WNV infectivity)” value (WNV [13]; listed as 3-tigloyl-melianol) of the same molecule?
A: The value was “doesn’t affect the WNV infectivity”.

Q: And the EC50 (YFV; read-out: EC50 YFV)?
A: Its EC50 is 7 µM.

Q: And the CC50 (Vero-76 cells)?
A: The CC50 was 100 µM.

Q: What about the CC50 (MDBK cells) of the same molecule?
A: Its CC50 is 37 µM.

Q: Which “Cytotoxicity towards A549” value [1] does the source give for `CC1(C)O[C@H]1[C@H]1C[C@@H]([C@@H]2CC[C@]3(C)C4=CC[C@H]5C(C)(C)C(=O)CC[C@]5(C)[C@H]4CC[C@@]23C)[C@H](O)O1` [Compound 5, melianone] here?
A: Its value is “exhibit cytotoxicity”.

Q: What about the CC50 (BHK-21 cells) of the same molecule?
A: The CC50 was 50 µM.

Q: What about the “Cytopathic effects on BHK-21 monolayers” value (BHK-21 cells) of the same molecule?
A: Its value is “did not show significant cytopathic effects”.

Q: And the EC50 (WNV [2]; read-out: EC50 WNV)?
A: The EC50 was 11 µM.

Q: And the EC50 [10]?
A: Its EC50 is 3 to 11 µM.

Q: What about the EC50 (BVDV) of the same molecule?
A: Its EC50 is greater than 16 µM.

Q: What about the “WNV adsorption (virus titre)” value (WNV [11]) of the same molecule?
A: Its value is “doesn’t reduce the virus titre”.

Q: What about the EC50 (HSV-1; read-out: EC50 HSV-1) of the same molecule?
A: Its EC50 is 20 µM.

Q: What about the EC50 (WNV [3]; read-out: EC50 WNV 2hrs p.i.) of the same molecule?
A: The EC50 was greater than 50 µM.

Q: What about the EC50 (WNV [3]; read-out: EC50 WNV d. i.) of the same molecule?
A: Its EC50 is 6.1 µM.

Q: And the EC50 (DENV-2; read-out: EC50 DENV-2)?
A: Its EC50 is 12 µM.

Q: What about the MIC [9] of the same molecule?
A: The MIC was greater than 136 µM.

Q: And the CC50 (MT-4 cells)?
A: Its CC50 is greater than 100 µM.

Q: And the “Cell viability, addition during the infection” value (WNV [5])?
A: The value was “increases the cell viability”.

Q: What about the “Cell viability, pretreatment” value (WNV [5]) of the same molecule?
A: Its value is “does not increase the cells viability”.

Q: What about the “Cell viability, addition at 1, 2, 4 or 8 hours post-infection” value (WNV [5]) of the same molecule?
A: Its value is “not more able to protect BHK-21 cells; also recorded: not more able to significantly increase the cell viability”.

Q: What about the EC50 (HIV-1 IIIB; read-out: EC50 HIV-1IIIB) of the same molecule?
A: The EC50 was greater than 100 µM.

Q: What about the “Reduction of WNV titre (yield reduction)” value (WNV [12]) of the same molecule?
A: Its value is “a reduction of virus titre was observed”.

Q: And the “Reduction of WNV titre (yield reduction)” value (WNV [12]; listed as melianone)?
A: Its value is “Reduction of WNV titre”.

Q: And the EC50 (Reo-1; read-out: EC50 Reo-1)?
A: The EC50 was greater than 50 µM.

Q: What about the “Virucidal activity (WNV infectivity)” value (WNV [13]) of the same molecule?
A: Its value is “failed to affect the WNV infectivity”.

Q: And the “Virucidal activity (WNV infectivity)” value (WNV [13]; listed as melianone)?
A: Its value is “doesn’t affect the WNV infectivity”.

Q: And the EC50 (YFV; read-out: EC50 YFV)?
A: The EC50 was 3 µM.

Q: What about the CC50 (Vero-76 cells) of the same molecule?
A: The CC50 was 51 µM.

Q: And the CC50 (MDBK cells)?
A: The CC50 was 16 µM.

Q: Which CC50 (in vitro [8]) does the source give for `O=C1Nc2ccc(Cl)cc2[C@@](C#CC2CC2)(C(F)(F)F)O1` [Efavirenz, reference compound] here?
A: Its CC50 is 40 µM.

Q: And the EC50 (HIV-1 IIIB; [19])?
A: The EC50 was 0.002 µM.

Q: For `NNC(=O)c1ccncc1` [Isoniazid, reference compound], which MIC [9, 18] is on record?
A: The MIC was 0.45 µM (≈ 0.0617 µg/mL).

Source: publication PMC4612778, “Limonoids from Melia azedarach Fruits as Inhibitors of Flaviviruses and Mycobacterium tubercolosis” (PLoS ONE, 2015)
